Results: publication PMC5078040 (Oncotarget, 2016)

What was measured:
PIK3CG = target: T1, PIK3CG (Homo sapiens, UniProt P48736); experiment: KinomeScan; assay type: binding; details: 1uM
T1 construct: purchased DiscoveRx KINOMEscan

EPHA3 = target: T2, EPHA3 (Homo sapiens, UniProt P29320); experiment: KinomeScan; assay type: binding; details: 1uM
T2 construct: purchased DiscoveRx KINOMEscan

CHEK1 = target: T3, CHEK1 (Homo sapiens, UniProt O14757); experiment: KinomeScan; assay type: binding; details: 1uM
T3 construct: purchased DiscoveRx KINOMEscan

KIT(V559D,T670I) = target: T4, KIT(V559D,T670I) (Homo sapiens, UniProt P10721, T670I/V559D); experiment: KinomeScan; assay type: binding; details: 1uM
T4 construct: purchased DiscoveRx KINOMEscan

PRKCQ = target: T5, PRKCQ (Homo sapiens, UniProt Q04759); experiment: KinomeScan; assay type: binding; details: 1uM
T5 construct: purchased DiscoveRx KINOMEscan

[1] = target: T6, ABL1(Q252H)-phosphorylated (Homo sapiens, UniProt P00519, Q252H); experiment: KinomeScan; assay type: binding; details: 1uM
T6 construct: purchased DiscoveRx KINOMEscan

CSNK1G1 = target: T7, CSNK1G1 (Homo sapiens, UniProt Q9HCP0); experiment: KinomeScan; assay type: binding; details: 1uM
T7 construct: purchased DiscoveRx KINOMEscan

SNARK = target: T8, SNARK (Homo sapiens, UniProt Q9H093); experiment: KinomeScan; assay type: binding; details: 1uM
T8 construct: purchased DiscoveRx KINOMEscan

DYRK1A = target: T9, DYRK1A (Homo sapiens, UniProt Q13627); experiment: KinomeScan; assay type: binding; details: 1uM
T9 construct: purchased DiscoveRx KINOMEscan

PAK4 = target: T10, PAK4 (Homo sapiens, UniProt O96013); experiment: KinomeScan; assay type: binding; details: 1uM
T10 construct: purchased DiscoveRx KINOMEscan

WEE1 = target: T11, WEE1 (Homo sapiens, UniProt P30291); experiment: KinomeScan; assay type: binding; details: 1uM
T11 construct: purchased DiscoveRx KINOMEscan

NEK2 = target: T12, NEK2 (Homo sapiens, UniProt P51955); experiment: KinomeScan; assay type: binding; details: 1uM
T12 construct: purchased DiscoveRx KINOMEscan

KIT(D816V) = target: T13, KIT(D816V) (Homo sapiens, UniProt P10721, D816V); experiment: KinomeScan; assay type: binding; details: 1uM
T13 construct: purchased DiscoveRx KINOMEscan

SgK110 = target: T14, SgK110 (Homo sapiens, UniProt P0C264); experiment: KinomeScan; assay type: binding; details: 1uM
T14 construct: purchased DiscoveRx KINOMEscan

PRKR = target: T15, PRKR (Homo sapiens, UniProt P19525); experiment: KinomeScan; assay type: binding; details: 1uM
T15 construct: purchased DiscoveRx KINOMEscan

NEK1 = target: T16, NEK1 (Homo sapiens, UniProt Q96PY6); experiment: KinomeScan; assay type: binding; details: 1uM
T16 construct: purchased DiscoveRx KINOMEscan

AURKC = target: T17, AURKC (Homo sapiens, UniProt Q9UQB9); experiment: KinomeScan; assay type: binding; details: 1uM
T17 construct: purchased DiscoveRx KINOMEscan

FLT3(D835H) = target: T18, FLT3(D835H) (Homo sapiens, UniProt P36888, D835H); experiment: KinomeScan; assay type: binding; details: 1uM
T18 construct: purchased DiscoveRx KINOMEscan

KIT = target: T19, KIT (Homo sapiens, UniProt P10721); experiment: KinomeScan; assay type: binding; details: 1uM
T19 construct: purchased DiscoveRx KINOMEscan

[2] = target: T20, RSK4(Kin.Dom.2-C-terminal) (Homo sapiens, UniProt Q9UK32); experiment: KinomeScan; assay type: binding; details: 1uM
T20 construct: RSK4(Kin.Dom.2-C-terminal); purchased DiscoveRx KINOMEscan

LC3B II = experiment: Autophagy (western-blot); assay type: cell-based, human; details: 12 hours
Source text: Cells were then washed in PBS and lysed in cell lysis buffer and detected by western-blot using LC3B, GAPDH antibody (Cell signaling Technology).

STK36 = target: T21, STK36 (Homo sapiens, UniProt Q9NRP7); experiment: KinomeScan; assay type: binding; details: 1uM
T21 construct: purchased DiscoveRx KINOMEscan

T12 sequence (P51955 whole entry): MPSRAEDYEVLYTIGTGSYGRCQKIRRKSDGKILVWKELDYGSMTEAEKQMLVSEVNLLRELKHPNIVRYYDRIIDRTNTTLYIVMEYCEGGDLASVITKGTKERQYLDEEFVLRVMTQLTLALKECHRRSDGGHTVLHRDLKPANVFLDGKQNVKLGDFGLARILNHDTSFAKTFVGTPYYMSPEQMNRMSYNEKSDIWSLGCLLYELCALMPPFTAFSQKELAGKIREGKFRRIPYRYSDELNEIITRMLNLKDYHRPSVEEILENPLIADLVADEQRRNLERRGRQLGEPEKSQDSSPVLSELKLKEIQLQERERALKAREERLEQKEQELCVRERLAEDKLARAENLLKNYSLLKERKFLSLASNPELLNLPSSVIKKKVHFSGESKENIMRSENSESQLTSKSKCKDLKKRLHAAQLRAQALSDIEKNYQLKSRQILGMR
T13 sequence (P10721 26-976 D816V): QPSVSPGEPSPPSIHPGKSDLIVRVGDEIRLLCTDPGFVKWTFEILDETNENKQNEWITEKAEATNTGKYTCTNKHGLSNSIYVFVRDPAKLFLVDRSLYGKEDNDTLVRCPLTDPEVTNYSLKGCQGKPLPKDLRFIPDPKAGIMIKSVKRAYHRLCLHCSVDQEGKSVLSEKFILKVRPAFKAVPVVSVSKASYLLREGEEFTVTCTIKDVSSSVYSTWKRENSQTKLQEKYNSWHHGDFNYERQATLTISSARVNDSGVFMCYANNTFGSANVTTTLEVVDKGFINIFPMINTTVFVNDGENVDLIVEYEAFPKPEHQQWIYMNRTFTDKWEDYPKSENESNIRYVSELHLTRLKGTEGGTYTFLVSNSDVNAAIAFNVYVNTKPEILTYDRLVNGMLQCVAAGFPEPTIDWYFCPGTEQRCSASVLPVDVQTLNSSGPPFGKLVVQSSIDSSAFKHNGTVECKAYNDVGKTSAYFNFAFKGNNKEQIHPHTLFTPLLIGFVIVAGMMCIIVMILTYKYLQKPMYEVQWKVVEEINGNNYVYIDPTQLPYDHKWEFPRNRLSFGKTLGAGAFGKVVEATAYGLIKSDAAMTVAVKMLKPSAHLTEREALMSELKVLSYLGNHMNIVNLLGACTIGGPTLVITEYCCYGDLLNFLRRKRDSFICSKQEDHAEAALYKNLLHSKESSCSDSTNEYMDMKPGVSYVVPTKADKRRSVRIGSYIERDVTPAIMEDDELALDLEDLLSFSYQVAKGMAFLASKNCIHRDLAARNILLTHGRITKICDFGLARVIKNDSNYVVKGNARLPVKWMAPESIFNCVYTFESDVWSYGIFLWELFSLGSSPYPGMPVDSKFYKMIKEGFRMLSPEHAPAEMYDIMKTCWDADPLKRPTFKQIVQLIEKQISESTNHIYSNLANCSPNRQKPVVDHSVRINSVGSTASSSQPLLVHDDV
T7 sequence (Q9HCP0 whole entry): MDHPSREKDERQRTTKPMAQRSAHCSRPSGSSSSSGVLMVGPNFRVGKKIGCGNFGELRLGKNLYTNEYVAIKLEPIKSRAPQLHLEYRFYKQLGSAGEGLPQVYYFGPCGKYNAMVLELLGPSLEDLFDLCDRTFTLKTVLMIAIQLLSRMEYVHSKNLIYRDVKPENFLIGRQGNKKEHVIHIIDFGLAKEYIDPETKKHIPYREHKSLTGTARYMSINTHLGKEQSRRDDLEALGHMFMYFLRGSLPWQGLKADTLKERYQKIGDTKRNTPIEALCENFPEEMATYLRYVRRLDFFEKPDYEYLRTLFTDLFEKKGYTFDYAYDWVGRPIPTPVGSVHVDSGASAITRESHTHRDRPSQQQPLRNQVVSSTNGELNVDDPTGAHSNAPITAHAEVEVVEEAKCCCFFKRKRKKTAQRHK
T3 sequence (O14757 whole entry): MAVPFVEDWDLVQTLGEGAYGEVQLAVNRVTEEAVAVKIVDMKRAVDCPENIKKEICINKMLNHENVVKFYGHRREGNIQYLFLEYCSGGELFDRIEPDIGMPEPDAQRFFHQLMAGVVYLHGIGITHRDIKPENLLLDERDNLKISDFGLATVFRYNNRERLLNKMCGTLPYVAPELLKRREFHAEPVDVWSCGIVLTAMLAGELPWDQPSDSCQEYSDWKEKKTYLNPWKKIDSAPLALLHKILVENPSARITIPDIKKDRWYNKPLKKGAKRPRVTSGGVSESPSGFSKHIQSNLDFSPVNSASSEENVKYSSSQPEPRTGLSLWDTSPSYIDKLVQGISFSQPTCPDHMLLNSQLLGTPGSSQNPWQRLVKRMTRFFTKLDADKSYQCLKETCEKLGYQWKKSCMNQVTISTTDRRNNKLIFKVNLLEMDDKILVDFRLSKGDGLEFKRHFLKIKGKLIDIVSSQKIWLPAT
T1 sequence (P48736 whole entry): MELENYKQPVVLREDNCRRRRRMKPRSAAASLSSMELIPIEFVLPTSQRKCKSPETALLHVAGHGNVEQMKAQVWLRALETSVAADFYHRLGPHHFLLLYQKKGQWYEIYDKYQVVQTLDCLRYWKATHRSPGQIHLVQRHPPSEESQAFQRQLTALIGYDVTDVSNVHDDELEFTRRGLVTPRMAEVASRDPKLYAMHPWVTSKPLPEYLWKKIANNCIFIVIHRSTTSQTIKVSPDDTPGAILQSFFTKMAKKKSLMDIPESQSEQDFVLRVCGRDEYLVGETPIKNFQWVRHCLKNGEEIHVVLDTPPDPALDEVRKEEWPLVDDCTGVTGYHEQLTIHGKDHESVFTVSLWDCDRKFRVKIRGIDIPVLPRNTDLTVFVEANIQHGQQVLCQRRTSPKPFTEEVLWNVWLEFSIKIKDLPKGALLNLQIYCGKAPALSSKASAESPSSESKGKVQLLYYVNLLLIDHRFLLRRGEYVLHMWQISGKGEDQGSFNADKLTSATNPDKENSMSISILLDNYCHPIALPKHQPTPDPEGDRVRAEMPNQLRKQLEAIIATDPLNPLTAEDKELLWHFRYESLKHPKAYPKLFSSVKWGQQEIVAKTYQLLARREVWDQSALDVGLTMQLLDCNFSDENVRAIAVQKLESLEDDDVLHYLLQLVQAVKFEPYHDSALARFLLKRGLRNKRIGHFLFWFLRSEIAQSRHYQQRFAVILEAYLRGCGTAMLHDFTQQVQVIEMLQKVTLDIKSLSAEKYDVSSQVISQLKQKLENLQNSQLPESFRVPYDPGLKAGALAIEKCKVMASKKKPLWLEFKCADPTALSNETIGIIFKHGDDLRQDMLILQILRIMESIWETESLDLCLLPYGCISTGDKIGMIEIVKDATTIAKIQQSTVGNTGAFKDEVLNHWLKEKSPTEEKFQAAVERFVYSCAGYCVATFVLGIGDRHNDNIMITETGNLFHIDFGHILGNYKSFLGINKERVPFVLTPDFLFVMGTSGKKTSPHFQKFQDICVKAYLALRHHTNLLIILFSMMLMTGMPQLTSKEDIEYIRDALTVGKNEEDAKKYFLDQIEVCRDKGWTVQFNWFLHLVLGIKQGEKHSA
T11 sequence (P30291 whole entry): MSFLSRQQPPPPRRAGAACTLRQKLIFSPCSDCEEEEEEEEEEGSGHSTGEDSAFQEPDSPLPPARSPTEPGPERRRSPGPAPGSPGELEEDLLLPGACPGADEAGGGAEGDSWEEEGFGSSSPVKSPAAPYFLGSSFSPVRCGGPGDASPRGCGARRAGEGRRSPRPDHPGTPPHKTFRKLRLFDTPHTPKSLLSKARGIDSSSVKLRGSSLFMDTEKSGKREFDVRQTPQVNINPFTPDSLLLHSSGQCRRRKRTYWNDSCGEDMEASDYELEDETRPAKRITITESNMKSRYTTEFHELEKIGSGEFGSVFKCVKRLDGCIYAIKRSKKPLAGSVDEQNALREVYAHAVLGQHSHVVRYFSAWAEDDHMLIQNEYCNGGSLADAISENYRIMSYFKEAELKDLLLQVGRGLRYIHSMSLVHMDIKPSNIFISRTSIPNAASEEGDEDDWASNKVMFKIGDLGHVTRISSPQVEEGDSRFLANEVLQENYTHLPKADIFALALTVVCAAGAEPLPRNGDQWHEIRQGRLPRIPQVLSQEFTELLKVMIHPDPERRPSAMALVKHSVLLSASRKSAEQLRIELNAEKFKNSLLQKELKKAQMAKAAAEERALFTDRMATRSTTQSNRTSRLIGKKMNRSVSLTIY
T4 sequence (P10721 26-976 V559D/T670I): as the sequence (P10721 26-976 D816V) above, with V534D, T645I, V791D counted along it
T15 sequence (P19525 whole entry): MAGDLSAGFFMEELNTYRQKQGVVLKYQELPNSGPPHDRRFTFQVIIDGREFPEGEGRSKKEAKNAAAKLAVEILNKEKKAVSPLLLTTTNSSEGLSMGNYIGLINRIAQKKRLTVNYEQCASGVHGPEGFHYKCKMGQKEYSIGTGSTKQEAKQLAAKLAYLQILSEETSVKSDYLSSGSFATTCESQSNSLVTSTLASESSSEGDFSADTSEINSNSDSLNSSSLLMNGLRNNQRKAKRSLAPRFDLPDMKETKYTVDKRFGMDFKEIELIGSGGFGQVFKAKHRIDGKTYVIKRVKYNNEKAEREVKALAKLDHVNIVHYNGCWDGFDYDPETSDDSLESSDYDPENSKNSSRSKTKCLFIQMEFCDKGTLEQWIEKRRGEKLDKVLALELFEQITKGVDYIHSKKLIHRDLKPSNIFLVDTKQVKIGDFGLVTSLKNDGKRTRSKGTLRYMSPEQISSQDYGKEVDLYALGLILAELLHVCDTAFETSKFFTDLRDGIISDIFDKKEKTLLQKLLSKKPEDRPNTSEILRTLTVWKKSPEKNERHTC
T14 sequence (P0C264 whole entry): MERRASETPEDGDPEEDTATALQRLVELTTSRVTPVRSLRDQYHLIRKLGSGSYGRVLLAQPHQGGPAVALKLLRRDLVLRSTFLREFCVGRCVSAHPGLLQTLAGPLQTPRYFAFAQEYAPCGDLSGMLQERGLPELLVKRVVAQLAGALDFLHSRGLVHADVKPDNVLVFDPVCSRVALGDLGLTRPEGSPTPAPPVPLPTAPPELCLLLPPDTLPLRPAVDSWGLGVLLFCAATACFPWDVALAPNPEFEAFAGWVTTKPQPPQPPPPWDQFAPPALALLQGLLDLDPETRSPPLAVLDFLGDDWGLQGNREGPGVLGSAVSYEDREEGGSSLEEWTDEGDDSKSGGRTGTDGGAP
T19 sequence (P10721 26-976): as the sequence (P10721 26-976 D816V) above, with V791D counted along it

Cc1nc(NC(=O)[C@@H](N)C(C)C)sc1-c1cnc(Cl)c(NS(=O)(=O)c2ccccc2)c1 [PI3KD-IN-015]
KinomeScan PIK3CG (PIK3CG): 0.05 | KinomeScan EPHA3 (EPHA3): 86 | KinomeScan CHEK1 (CHEK1): 100 | KinomeScan KIT(V559D,T670I) (KIT(V559D,T670I)): 90 | KinomeScan PRKCQ (PRKCQ): 100 | KinomeScan ABL1(Q252H)-phosphorylated [1]: 90 | KinomeScan CSNK1G1 (CSNK1G1): 100 | KinomeScan SNARK (SNARK): 97 | KinomeScan DYRK1A (DYRK1A): 89 | KinomeScan PAK4 (PAK4): 100 | KinomeScan WEE1 (WEE1): 100 | KinomeScan NEK2 (NEK2): 100 | KinomeScan KIT(D816V) (KIT(D816V)): 100 | KinomeScan SgK110 (SgK110): 100 | KinomeScan PRKR (PRKR): 100 | KinomeScan NEK1 (NEK1): 100 | KinomeScan AURKC (AURKC): 77 | KinomeScan FLT3(D835H) (FLT3(D835H)): 94 | KinomeScan KIT (KIT): 92 | KinomeScan RSK4(Kin.Dom.2-C-terminal) [2]: 99 | autophagy induction (LC3B II) (LC3B II; HT cells and MEC-1 cells): significantly increased the production of LC3B II | autophagy induction (LC3B II; MOLM-13 cell): no apparent autophagy induction | KinomeScan STK36 (STK36): 100
